Data published in patent US11540515B2, “Use of dialkoxybenzenes for control of honey bee mite varroa destructor” (Simon Fraser University, priority 2018, dated 2023).
Counter-ions that a name gives are not always drawn.

Columns and labels:
[1] = test system: Varroa mites; assay: Evaluation of acaricidal effect: emerging bees loaded with Varroa mites in glass petri dish, compound on Parafilm; assay type: in vivo, Varroa destructor; conditions: for acaricidal effect: highest amount tested (30 μl), end of 24 h; for mites falling off bees: up to end of experiment
Experimental: The effect of the compounds was checked in free moving-mites freshly collected from the bottom board using fine paint brush. All collected Varroa were kept on emerging bees at room temperature until the experiment.
Compounds (code-labeled, Table 1) were prepared in hexane:ethyl acetate (1:1) in 10 mM concentration according to instructions. Dilutions only of compound “A” was prepared. […] This setup enabled the testing of all the compounds and to save the mites.
The assay was conducted in glass petri dish (90 mm diameter and 17 mm deep glass) containing moistened filter paper. Five emerging bees loaded with two Varroa mites were put into each plate. The bees were provided with candy (60% of pollen and 40% sugar). 10 μl or 30 μl volume of each compound or control mix was placed on Parafilm paper (5×5 cm) on the plates cover.

[2] = test system: Varroa destructor mites; assay: Example 3 paralysis assays in petri dishes (dose response, screen, blends); assay type: in vivo
Experimental: Paralysis assays. These assays were done in 10 cm glass Petri dishes. A 3×3 cm piece of Parafilm was stuck to the lid of the dish, in the middle. The Parafilm received […], either pure (controls) or with the compound (treatments). The bottom of the dish received one freshly thawed nurse and one freshly thawed forager, placed ˜3 cm from the center of the dish. One mite was placed between the nurse and the forager, the lid was closed and groups of dishes were placed in an incubator at 30° C. Humidity levels were kept at around 35-40%.
Observation times were 3 h and 5 h. Mites were scored for whether the mite could move normally, was paralyzed (had difficulty moving) or dead (not moving).
Each assay was done in 5 technical replicates, in two biological replicates. Thus, each biological replicate was scored out of 5.
(§1) Experiments were performed in the dishes: i) dose response assays with a single compound at different doses of compound on the Parafilm (1 ng, 10 ng, 100 ng, 1 μg, 10 μg, 100 μg, 1 mg and 10 mg), ii) a screen with six compounds, all at a 1 mg dose, iii) an assay with blends of compounds 3c{3,6} and 3c{6,6}, and iv) one assay without bees (only to check for mite paralysis and death), with compounds 3c{3,6} and 3c{6,6}(pure or 1:1 blend), at 0.5 and 1 mg doses.

[3] = test system: Varroa mites; assay: Example 6 behavioral dose response bio-assays of Varroa mites; assay type: in vivo; conditions: for mite paralysis/mortality: 1 mg
Source text: Foragers were collected at the entrance of one or more honey bee hives by aspiration into a jar, when bees were flying back to the colony.
Initially, nurses were collected from an open brood frame of a honey bee hive. Bees apparently attending the brood were targeted for collection. As time passed and temperatures started to drop no open brood was observed, therefore subsequent collections targeted bees around sealed brood. At the end of the sampling period no sealed brood was present, so bees taken from the middle frame of a brood chamber were considered nurses.
Both foragers and nurses were immediately transferred to individual plastic cages (118×98×81 mm: H×W×D), fed with syrup (2:1) and kept overnight in an incubator at 30° C. and 70% RH. Next day, cages were inspected for any dead bees to be removed before freeze killing the bees on dry ice.
For Varroa mite collection, adult bees were taken from the brood chamber's central frames of a mite-infested hive using a glass jar. Bees were fed with syrup (2:1), and kept in an incubator at 30° C. and 70% RH until needed. First collections were made from frames with open and sealed brood, later only from sealed brood frames.
Mite-infested bees in the glass jar were dusted with icy sugar and shaken over a large plastic weighing boat. Dislodged Varroa were immediately transferred with a fine paint brush to a wet filter paper in a plastic petri dish to avoid desiccation. Individual mites were placed then onto the middle of a glass petri dish bottom (10 cm diameter) with a fresh freeze-killed forager or nurse bee on opposite sides of the plate. Synthesized compounds were applied onto a 1 cm^2 Parafilm square attached to the center of the petri dish cover's inner face, Hexane was used as control.
The bio-assays with a forager and a nurse bee, Varroa mite, and synthesized compounds were set in glass petri dishes placed into an incubator at 30° C. and 70% relative humidity. […] Mite paralysis and death were recorded after 3 h and 5 h.

[4] = test system: honey bee antennae; conditions: earlier evaluation; cited from earlier work
[5] = test system: Varroa; conditions: earlier evaluation; cited from earlier work
[6] = test system: Varroa destructor mites; assay: Example 3 mite paralysis/death in the absence of bees; assay type: in vivo; conditions: no bees, 4.5 h
Experimental: as §1
Compounds 3c{3,6}, 3c{6,6} were tested on mites in the absence of bees, alone and as a 1:1 blend. Mite paralysis and death were checked every 30 min, up to 4.5 h after initial exposure. Four doses were tested: 0.2, 0.5, 1 and 10 mg.

[7] = test system: Varroa; assay: Example 5 Varroa death and paralysis assay, single compounds and blend; design: species or system Varroa destructor; conditions: in vivo
Experimental: Assays were done in 9 cm glass Petri dishes. A 2.5×2.5 cm piece of Parafilm was stuck to the lid of the dish, in the middle. 120 μL water were put on filter paper in the middle of the plate. The Parafilm received 10 μL of hexane, either pure (controls) or with the compound (treatments). The bottom of the dish received one freshly thawed nurse and one freshly thawed forager, placed at opposite sides. One mite was placed between the nurse and the forager, the lid was closed and groups of dishes were placed in an incubator at 30° C. Observation times were at 3 h, 5 h and 20 h. Mites were scored for whether the mite could move normally, was paralyzed (had difficulty moving) or dead (not moving). Four types of experiment were performed in the dishes: i) dose response assays with a single compound at different doses of compound on the Parafilm (1 ng, 10 ng, 100 ng, 1 μg, 10 μg, 100 μg, 1 mg) an assay with blends of compounds 3c{3,6} and 3c{6,6} (pure or 1:1 blend) at 0.5 mg and […].

Cc1ccc(C(C)C)c(OC=O)c1 [thymyl formate]
acaricidal effect [1]: somewhat effective

CCCOc1ccc(OCCC)cc1 [3c{3,3}, 1,4-dipropoxybenzene]
acaricidal effect [1]: clear acaricidal effect
paralysis and mite death in screen ([2]; 1 mg dose, 3 h): most reliable mite paralysis

C=CCOc1ccc(OCCCCC)cc1 [3c{n5,6}, 1-(allyloxy)-4-(pentyloxy)benzene]
mites falling off bees [1]: occasionally fell off bees but reattached quickly

CCCCOc1ccc(OCCC)cc1 [3c{4,3}, 1-butoxy-4-propoxybenzene]
acaricidal effect [1]: somewhat effective
paralysis and mite death in screen ([2]; 1 mg dose, 3 h): most death

CCOc1cccc(OCC)c1 [3b{2,2}, 1,3-diethoxybenzene]
mite paralysis/mortality [3]: 50%

C=CCOc1ccc(OCCCC)cc1 [3c{4,6}, 1-(allyloxy)-4-butoxybenzene]
acaricidal effect [1]: clear acaricidal effect
activity relative to compound 3c{3,6} in screen ([2]; 1 mg dose): slightly less active

CCN(CC)C(=O)c1cccc(C)c1 [DEET, N,N-diethyl-meta-toluamide]
chemosensing and behavior of honey bees [4]: not found to affect
ability of mites to reach a bee [5]: reduced
host preference of Varroa [5]: without affecting

C=CCOc1ccc(OCC=C)cc1 [3c{6,6}, 1,4-bis(allyloxy)benzene]
acaricidal effect [1]: clear acaricidal effect
mites falling off bees [1]: occasionally fell off bees but reattached quickly
mite paralysis/mortality [3]: 50%
doses at which mites were paralyzed or killed ([3]; FIG. 9 / FIG. 10): ≥ 10 µg
mite paralysis+death ([6]; 0.2 mg): no activity
mite paralysis+death ([6]; 0.5 mg): no activity
mite paralysis or death ([6]; 10 mg): 100%
acaricidal activity alone [7]: acaricidal
fold less active than 3c{3,6} with regard to paralysis and death of mites ([2]; from EC50): ca. 4 ×
EC50 for paralysis and eventual death of mites ([2]; neat compound on the source, vapors only, 3 h): 182 µg

C=CCOc1ccccc1OCCC [3a{3,6}, 1-allyloxy-2-propoxybenzene]
mites falling off bees [1]: occasionally fell off bees but reattached quickly

C=CCOc1ccc(OCC)cc1 [3c{2,6}, 1-(allyloxy)-4-ethoxybenzene]
paralysis and mite death in screen ([2]; 1 mg dose, 3 h): little paralysis
